US20170246311A1, “PEPTIDES FOR BINDING ALTERNATIVELY ACTIVATED MACROPHAGES” (University of Washington, priority 2016, published 2017)
“Also recorded” adds a separate entry of the source. Where two headings read alike, the source gives them in different places. Positions of bridges follow the written chain, without caps; N, C: chain ends. Non-standard residues stand in square brackets, D forms with d. Residues, ends and D or L forms follow the SMILES beside them. *: point of attachment. Biotin = O=C1N[C@H]2[C@H](CS[C@H]2CCCCC(=O)*)N1

Columns and labels:
M2 macrophages [1] = assay: Binding study of biotinylated peptides on polarized bone marrow-derived macrophages (streptavidin-FITC, flow cytometry); type: cell-based, mouse; details: for Kd: M2 macrophages, half-maximal MFI, read-out: apparent dissociation constant (KD); for binding activity to M2 macrophages (in words): biotinylated peptide, on ice 20 min
Description: All animal handling protocols were approved by the University of Washington Institutional Animal Care and Use Committee. Bone marrow harvest was performed following the previously reported protocol. Briefly, femur and tibia were excised from 6-8 week-old female c57bl6/027 mice. Cuts were made on the ends of each bone, and RPMI 1640 medium was used to flush out bone marrow cells via 18G needle. The cells were cultured on petri dishes in RPMI 1640 medium supplemented with 20% donor horse serum, 1% antibiotic-antimycotic (AbAm), and 20 ng/mL M-CSF. After 7 d of culture, macrophages were activated by replacing M-CSF with 25 ng/mL IFN-γ and 100 ng/mL LPS for M1 macrophage or 25 ng/mL IL-4 for M2 macrophage. The macrophages were activated for 2 d and then scraped off the petri dishes with cell lifter for binding studies.
(§1) Peptide solutions at different concentrations for binding study were prepared by dilutions from the stock solution (10 mg/mL in dH2O) with PBS containing 1% BSA (PBSA). M1 and M2 macrophages (50,000 cells/well) were seeded on a black 96-well plate and incubated in the peptide solutions on ice for 20 min. Unbound peptides were washed off with PBSA twice. The macrophages were subsequently incubated with streptavidin-FITC for 15 min on ice to probe for the bound peptides. Excess streptavidin-FITC was washed off with PBSA twice, and the macrophages were then resuspended in PBS for analysis by MACSQuant Flow Cytometer (Miltenyi Biotec, San Diego, Calif.). Propidium iodide was added to the samples before the data acquisition to discriminate dead cells. Flow cytometry data were analyzed with FlowJo Analysis Software (Tree Star, Ashland, Oreg.). Binding study of peptides post serum incubation was similarly performed with the following additions: The peptides (5 mM stock solution in H2O) were diluted in serum to a final concentration of 0.5 mM and incubated at 37° C. in an incubator. At each time point, an aliquot of the peptides was drawn and diluted in PBS to the final concentration for the binding study. The diluted aliquot was heated at 80° C. for 30 min to inactivate serum proteins, stored in a −20° C. freezer, and thawed for use in the binding study after aliquots at all time points were collected.
All animal handling protocols were approved by the University of Washington Institutional Animal Care and Use Committee. Bone marrow-derived cells were harvested from female c57bl/6 mice as previously described. In brief, femurs and tibias of the mice were excised and flushed with RPMI 1640 medium via an 18G needle. The cells were cultured on petri dishes containing RPMI 1640 medium supplemented with 20% donor horse serum, 1% antibioticantimycotic (AbAm), and 20 ng/mL M-CSF. After 7 d in culture, the medium was replaced with an activation medium whereby M-CSF was replaced with 25 ng/mL IFN-γ and 100 ng/mL LPS for M1 activation or with 25 ng/mL IL-4 for M2 activation. For M1 activation medium, AbAm was replaced with 1% penicillin-streptomycin (Pen-Strep). After 2 d of activation, the activated macrophages were scraped off the petri dishes for binding studies.
Biotinylated peptide stock solutions were prepared in H2O at 10 mg/mL concentration and quantified for the exact concentration using Quant*Tag Biotin quantification kit. The stock solutions were diluted in PBS with 1% BSA (PBSA) to different concentrations for binding studies. Activated macrophages were seeded on a black 96-well plate (50,000 cells/well) and incubated with the peptide solutions for 20 min on ice. The cells were washed twice with PBSA and subsequently incubated with streptavidin-FITC for 15 min on ice. After two additional washes, the cells were resuspended in PBS for analysis via MACSQuant Flow Cytometer (Miltenyi Biotec, San Diego, Calif.). Propidium iodide (PI) was added before running each sample to assess for cell viability. Data analysis was processed on FlowJo Analysis Software (Tree Star, Ashland, Oreg.). […]

M2 macrophages [2] = assay: Binding of M2pep analogs post serum incubation; type: cell-based, mouse; details: for decline in binding activity with serum pre-incubation: 150 μM of M2pepBiotin, 50 μM of AcM2pep(RY)Biotin and cyclic M2pep(RY)Biotin, mouse serum 37° C.
Description: as §1
For TAM targeting applications, M2pep analogs will be exposed to serum during systemic circulation. Therefore, we next studied how the serum stability of M2pep analogs affects subsequent binding to target cells. Peptides were incubated with mouse serum at 37° C. to mimic peptidase exposure in systemic circulation, and aliquots of the serum were withdrawn at various time points for binding studies with polarized macrophages. In general, binding activity of the M2pep analogs corresponded with the peptides' serum stability (FIG. 6). […]

[3] = Serum stability study in normal mouse serum, analysis by MALDI-TOF MS; details: for overall serum stability (in words): MALDI-TOF MS
Description: The peptide of interest (30 μL of 10 mg/mL stock solution in dH2O) was added to normal mouse serum (300 μL) and incubated at 37° C. in an incubator. At each time point, an aliquot of 40 μL was drawn and an equal volume of ACN was added to the aliquot to precipitate serum proteins. The cloudy mixture was centrifuged at 10,000 rpm for 5 min and then supernatant removed. A solution of 1:1 H2O/ACN (80 μL) was added to the pellet and sonicated for 10 min to further extract the remaining peptides. This resuspended mixture was then centrifuged, and the supernatant was pooled with the former and vacuum-dried on a Speedvac machine. The dried pellet was solubilized in H2O (50 μL) by sonication for 10 min. The mixture was then centrifuged, and the supernatant was drawn and analyzed by MALDI-TOF MS.
To evaluate serum stability of M2pep, the peptide was incubated in mouse serum, and aliquots of the serum at various time points were withdrawn for analysis of degradation patterns by MALDI-TOF MS.
Different M2pep analogs (30 μL from 10 mg/mL stock solution in H2O) were incubated in normal mouse serum (300 μL) at 37° C. in an incubator. An aliquot of the serum (40 μL) was drawn at different time intervals and precipitated with an equal volume of cold ACN. The mixture was centrifuged at 15,000 rpm for 5 min, and the supernatant was collected. A solution of H2O/ACN (1:1 v/v, 80 μL) was added to the pellet with a 10-min sonication to further extract residual peptides. The mixture was then centrifuged. The supernatant was pooled with the former and dried under vacuum on a Speedvac machine. The peptide pellet was resuspended in H2O (50 μL) with a 10-min sonication before analysis by MALDI-ToF MS.

Compound	binding activity to M2 macrophages (in words) (M2 macrophages [1])	decline in binding activity with serum pre-incubation (M2 macrophages [2])	overall serum stability (in words) ([3]; mouse serum, 37° C.)	serum stability at the W10/W11 endolytic cleavage site ([3]; mouse serum)	further results
CC(C)[C@@H]1NC(=O)CNC(=O)[C@H](Cc2c[nH]c3ccccc23)NC(=O)[C@@H]2CCCN2C(=O)[C@H](CC(=O)O)NC(=O)[C@H](CCC(N)=O)NC(=O)[C@H](CCC(=O)O)NC(=O)[C@H](Cc2ccc(O)cc2)NC(=O)CNC(=O)[C@@H](N)CSSC[C@@H](C(=O)N[C@H](CCCCN)C(=O)N[C@H](CCCCN)C(=O)N[C@H](CCCCN)C(=O)N[C@@H](CCCCNC(=O)CCCC[C@@H]2SC[C@@H]3NC(=O)N[C@@H]32)C(N)=O)NC(=O)CNC(=O)[C@H](Cc2ccc(O)cc2)NC(=O)[C@H](Cc2c[nH]c3ccccc23)NC(=O)[C@H](Cc2ccc(O)cc2)NC(=O)[C@H](CCCNC(=N)N)NC1=O [cyclic M2pep(RY)Biotin, CGYEQDPWGVRYWYGCkkk] (H-CGYEQDPWGVRYWYGC[dK][dK][dK]K(Biotin)-NH2; disulfide 1-16)	comparable binding activity to the linear AcM2pep(RY)Biotin	least decline	markedly improved serum stability over the linear AcM2pep(RY)Biotin		Kd (M2 macrophages [1]; listed as disulfide-cyclized M2pep(RY)): 36.3 µM; binding activity after 24 h serum incubation (M2 macrophages [2]; 24 h in mouse serum at 37° C.): retained the highest binding activity; serum incubation time at which the peptide remained detectable by MALDI-TOF MS ([3]; mouse serum, 37° C.): ≥ 48 h; time without endolytic cleavage at the W10/W11 site ([3]; mouse serum, 37° C.): at least 8 h; incubation in mouse serum after which the cyclized peptide was eventually degraded ([3]; prolonged incubation in mouse serum): more than 1 day
CC(=O)N[C@@H](Cc1ccc(O)cc1)C(=O)N[C@@H](CCC(=O)O)C(=O)N[C@@H](CCC(N)=O)C(=O)N[C@@H](CC(=O)O)C(=O)N1CCC[C@H]1C(=O)N[C@@H](Cc1c[nH]c2ccccc12)C(=O)NCC(=O)N[C@H](C(=O)N[C@@H](CCCCN)C(=O)N1CCC[C@H]1C(=O)N[C@@H](Cc1c[nH]c2ccccc12)C(=O)N[C@@H](Cc1ccc(O)cc1)C(=O)NCC(=O)NCC(=O)NCC(=O)N[C@@H](CO)C(=O)N[C@H](CCCCN)C(=O)N[C@H](CCCCN)C(=O)N[C@H](CCCCN)C(=O)N[C@@H](CCCCNC(=O)CCCC[C@@H]1SC[C@@H]2NC(=O)N[C@@H]21)C(N)=O)C(C)C [W10P, Ac-YEQDPWGVKPWYGGGSkkk] (Ac-YEQDPWGVKPWYGGGS[dK][dK][dK]K(Biotin)-NH2)	abrogated the binding activity			did not confer protection at the W10/W11 site	
CC(=O)N[C@@H](Cc1ccc(O)cc1)C(=O)N[C@@H](CCC(=O)O)C(=O)N[C@@H](CCC(N)=O)C(=O)N[C@@H](CC(=O)O)C(=O)N1CCC[C@H]1C(=O)N[C@@H](Cc1c[nH]c2ccccc12)C(=O)NCC(=O)N[C@H](C(=O)N[C@@H](CCCNC(=N)N)C(=O)N[C@@H](Cc1ccc(O)cc1)C(=O)N[C@@H](Cc1c[nH]c2ccccc12)C(=O)N[C@@H](Cc1ccc(O)cc1)C(=O)NCC(=O)NCC(=O)NCC(=O)N[C@@H](CO)C(=O)N[C@H](CCCCN)C(=O)N[C@H](CCCCN)C(=O)N[C@H](CCCCN)C(=O)N[C@@H](CCCCNC(=O)CCCC[C@@H]1SC[C@@H]2NC(=O)N[C@@H]21)C(N)=O)C(C)C [AcM2pep(RY)Biotin, Ac-YEQDPWGVRYWYGGGSkkk] (Ac-YEQDPWGVRYWYGGGS[dK][dK][dK]K(Biotin)-NH2)	did not improve the binding activity any further compared to the K9R analog; also recorded: highest affinity linear M2pep analog			did not improve serum stability at the W10/W11 site	
CC(C)[C@H](NC(=O)CNC(=O)[C@H](Cc1c[nH]c2ccccc12)NC(=O)[C@@H]1CCCN1C(=O)[C@H](CC(=O)O)NC(=O)[C@H](CCC(N)=O)NC(=O)[C@H](CCC(=O)O)NC(=O)[C@@H](N)Cc1ccc(O)cc1)C(=O)N[C@@H](CCCCN)C(=O)N[C@@H](Cc1c[nH]c2ccccc12)C(=O)N[C@@H](Cc1c[nH]c2ccccc12)C(=O)N[C@@H](Cc1ccc(O)cc1)C(=O)NCC(=O)NCC(=O)NCC(=O)N[C@@H](CO)C(=O)N[C@@H](CCCCN)C(=O)N[C@@H](CCCCN)C(=O)N[C@@H](CCCCNC(=O)CCCC[C@@H]1SC[C@@H]2NC(=O)N[C@@H]21)C(N)=O [M2pepBiotin, YEQDPWGVKWWYGGGSKK]		fastest and greatest decline in binding activity	Poor serum stability		Kd (M2 macrophages [1]): 220 µM
CC(=O)N[C@@H](Cc1ccc(O)cc1)C(=O)N[C@@H](CCC(=O)O)C(=O)N[C@@H](CCC(N)=O)C(=O)N[C@@H](CC(=O)O)C(=O)N1CCC[C@H]1C(=O)N[C@@H](Cc1c[nH]c2ccccc12)C(=O)NCC(=O)N[C@H](C(=O)N[C@@H](CCCCN)C(=O)N[C@@H](Cc1ccc(O)cc1)C(=O)N[C@@H](Cc1c[nH]c2ccccc12)C(=O)N[C@@H](Cc1ccc(O)cc1)C(=O)NCC(=O)NCC(=O)NCC(=O)N[C@@H](CO)C(=O)N[C@H](CCCCN)C(=O)N[C@H](CCCCN)C(=O)N[C@H](CCCCN)C(=O)N[C@@H](CCCCNC(=O)CCCC[C@@H]1SC[C@@H]2NC(=O)N[C@@H]21)C(N)=O)C(C)C [W10Y, Ac-YEQDPWGVKYWYGGGSkkk] (Ac-YEQDPWGVKYWYGGGS[dK][dK][dK]K(Biotin)-NH2)	significantly increased binding activity			did not confer protection at the W10/W11 site	
CC(=O)N[C@@H](Cc1ccc(O)cc1)C(=O)N[C@@H](CCC(=O)O)C(=O)N[C@@H](CCC(N)=O)C(=O)N[C@@H](CC(=O)O)C(=O)N1CCC[C@H]1C(=O)N[C@@H](Cc1c[nH]c2ccccc12)C(=O)NCC(=O)N[C@H](C(=O)N[C@@H](CCCCN)C(=O)N[C@@H](Cc1c[nH]c2ccccc12)C(=O)N[C@@H](Cc1c[nH]c2ccccc12)C(=O)N[C@@H](Cc1ccc(O)cc1)C(=O)NCC(=O)NCC(=O)NCC(=O)N[C@@H](CO)C(=O)N[C@@H](CCCCN)C(=O)N[C@@H](CCCCN)C(=O)N[C@@H](CCCCN)C(=O)N[C@@H](CCCCNC(=O)CCCC[C@@H]1SC[C@@H]2NC(=O)N[C@@H]21)C(N)=O)C(C)C [AcM2pepBiotin, Ac-YEQDPWGVKWWYGGGSKKK]	slight, but not statistically significant, reduction in binding activity		did not improve the overall serum stability		binding selectivity to M2 macrophages over M1 macrophages (M2 macrophages [1]; M2 versus M1 macrophages): retained binding selectivity to M2 macrophages over M1 macrophages; N-terminal (exolytic) degradation in serum ([3]; mouse serum): resistant to N-terminal degradation
